Reference: patent US12685708B2, “Skin care composition” (BEIERSDORF AG, priority 2019, dated 2026)

What was measured:
Assay type in all cases: cell-based, Cutibacterium acnes
C. acnes strain C3 = assay: Evaluation of the minimum inhibitory concentration (MIC) of cosmetic excipients; conditions: % w/vol, incubated anaerobically 3 days at 37° C., scored for growth or complete growth inhibition
Experimental: (§1) In microbiology, the MIC is the lowest concentration of a chemical which prevents visible growth of bacterium. The resulted MIC value depends both on the microorganism and the test compound. The MIC is determined by preparing concentrations series of the test compound in vitro, incubating the solutions with the separate batches of cultured bacteria, and measuring the results using agar dilution or broth microdilution. For the experiments with C. acnes strains C3 and K8, media comprising yeast extract soy peptone and dextrose were used. The MIC is determined by turbidity.
(§2) A total of 125 cosmetic excipients were tested for their compatibility with C. acnes strains C3 and K8. Hydrophilic compounds were tested in a 96-well plate liquid broth format, poorly soluble compounds were pre-dissolved in DMSO before dilution in liquid broth and hydrophobic or solid compounds were tested in an agar well diffusion test assay. The different dilutions of the test excipients in media were prepared in Falcon tubes and then distributed in a deep well plate using a multistepper. Each well received 1.2 ml and was subsequently inoculated with 120 μl of C. acnes bacteria suspension (strain C3 and K8). From the deep well plate 200 μl were transferred in each well of a clear 96 well replicate plate. The leftover was discarded. The plates were then incubated anaerobically for 3 days at 37° C. Following incubation, the test plates were visually examined and wells were scored for growth or complete growth inhibition to define the minimum inhibitory concentration.
(§3) These excipients are listed in the below table with their compatibility values for C. acnes strains C3 and K8. The compatibility values represent the MIC value of the listed ingredients with the tested C. acnes strains. At this concentration [% w/vol] the tested compound starts interfering with the growth of the tested strains. The compounds can be used in formulations at concentrations below this concentration.

C. acnes strain K8 = assay: as above; conditions: % w/vol, incubated anaerobically 3 days at 37° C., scored for growth or complete growth inhibition
Experimental: as §1, §2, §3

[1] = test system: freeze-dried C. acnes strains K8 and C3; assay: Reactivation assay of freeze dried bacteria in formulations (CFU count); conditions: statement in the description
Source text: For this purpose, a freeze-dried powder of C. acnes strains K8 and C3 was produced and mixed with other ingredients as indicated below. Ingredients are listed in % (w/w). The formulations were provided in two pre-mixed compositions A and B that were finally mixed with each other. The following formulations were made: […]
The formulations are depicted in the form of a table in FIG. 1. For formulations 1-11, the CFU target value was 1×10^7. For formulations 12-15, the CFU target value was 1×10^6. A CFU count was performed directly after mixing the formulation to assess the effect of the prototype formulation on the revival and subsequent stability rate of the bacteria. Briefly, the formula component A (lyophilisate/oil suspension) and the formula component B (hydrogel/aqueous solution) are mixed together and well vortexed. Directly after mixing an aliquot is removed and transferred to 0.9% NaCl. Further dilutions are plated on COST agar plates and incubated anaerobically at 37° C. for 5 days.
Similar to the formulations tested in Example 2, another set of 11 prototype formulations was prepared with higher concentrations of the excipients of the invention. The formulations were tested as described in Example 2 for their impact on reactivation of freeze-dried C. acnes bacteria. As a control, a formulation containing the lyophilisate and low amounts of the excipients was prepared. […]

Compound	COMPATABILITY VALUE C3 [%] (MIC) (C. acnes strain C3)	COMPATABILITY VALUE K8 [%] (MIC) (C. acnes strain K8)	interference with viability and replication capability of the lyophilized or spray-dried bacteria [1]
ethylhexyl cocoate	10.00%	10.00%	
CC(CO)CO [methylpropanediol]	4.00%	4.00%	
CC(=O)Oc1c(C)c(C)c2c(c1C)CCC(C)(CCC[C@H](C)CCC[C@H](C)CCCC(C)C)O2 (stereo partly drawn) [tocopheryl acetate]	1.00%	1.00%	
tocopherol	1.50%	1.50%	
CCCCCCC(O)CO (stereo not drawn) [caprylyl glycol]	0.18%	0.18%	
O=C(O)CC(O)(CC(=O)O)C(=O)O [citric acid]	0.33%	0.08%	
peg-40 hydrogenated castor oil	1.00%	1.00%	does not interfere
